Measured values from US8314112B2 (Novartis AG, priority 2008, dated 2012).

Target: T1, human ALK5 (kinase domain, ALK5 T204D) (Homo sapiens, UniProt P36897, T204D)
T1 construct: The kinase domain of human ALK5 (amino acids 200-503); made in house; host or cells: insect cells (baculovirus)
T1 sequence (P36897 200-503 T204D): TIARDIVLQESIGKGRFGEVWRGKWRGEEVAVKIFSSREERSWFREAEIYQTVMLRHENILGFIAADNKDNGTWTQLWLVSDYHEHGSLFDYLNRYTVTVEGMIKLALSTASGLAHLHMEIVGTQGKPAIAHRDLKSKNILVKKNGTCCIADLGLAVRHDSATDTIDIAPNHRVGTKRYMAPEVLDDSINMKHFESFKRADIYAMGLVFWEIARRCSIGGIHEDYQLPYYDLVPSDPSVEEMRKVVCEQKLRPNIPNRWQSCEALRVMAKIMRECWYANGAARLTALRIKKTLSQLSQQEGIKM
Assay: ALK5 kinase assay ([33P] phosphate incorporation into casein)
Type: biochemical
Conditions: casein substrate, 1 μM unlabelled ATP
Procedure: The kinase activity of ALK5 is assessed by measuring radiolabelled phosphate [33P] incorporation in to the generic substrate, casein. The kinase domain of human ALK5 (amino acids 200-503) is fused to an N-terminal histidine tag. The kinase activity of ALK5 is rendered constitutive via point mutation at amino acid 204 (threonine to aspartate modification, ALK5 T204D) and the kinase construct is engineered to be expressed from a baculovirus expression construct in insect cells. The purified, recombinantly-expressed histidine-tagged ALK5 T204D protein is dissolved at 5.4 mg/ml in 50 mM Tris-HCl pH 8.0, 150 mM NaCl, 5 mM DTT. ALK5 T204D is dissolved to 2.5 μg/ml in assay buffer (Assay buffer: 20 mM Tris-HCl pH 7.4, 10 mM MgCl2, 2 mM MnCl2) on the day of use.
Test compounds and reference compounds are dissolved in assay buffer without DTT containing 5% (v/v) DMSO. Stock solutions of test and reference compounds are diluted in assay buffer with DTT (1.25 mM) containing 4.5% (v/v) DMSO. 10 μl of test or reference compound are added to the appropriate wells of 96 well U-bottomed plate. Total enzyme activity is determined by measuring ALK5 T204D activity in the absence of ALK5 kinase inhibitor reference compounds. Non-specific binding (NSB) is determined by measuring the activity of ALK5 T204D in the presence of ALK5 kinase inhibitor reference compounds. 10 μl of dephosphorylated casein stock solution (dephosphorylated casein is dissolved in ddH2O at 20 mg/ml) is added per well (200 μg/well final assay concentration). 20 μl of ALK5 T204D (2.5 μg/ml solution) is added per well (50 ng/well final assay concentration). The plates are left to incubate at room temperature for 10 minutes.
10 μl of ATP mix is added to the well to initiate the reaction (0.66 nM [^33P]ATP/1 μM unlabelled ATP/well final assay concentration). The ATP mix is prepared as follows, unlabelled ATP (3 mM) is dissolved in ddH2O and pH adjusted to 7.4. The stock concentration of [^33P]ATP is 10 μCi/μl. The appropriate volume of [^33P]ATP is added to unlabelled ATP solution such that the final assay concentration per well is 0.1 μCi. Following addition of the ATP mix, the plates are incubated at room temperature for 50 minutes. The kinase reaction is terminated by the addition of 50 μL Stop Buffer (20 mM Tris-HCl pH 7.4, 10 mM EDTA).
75 μl/well from the reaction plate is transferred to a Multiscreen-IP plate (MultiScreen-IP plates are prepared by added 50 μL of 70% (v/v) ethanol per well and incubated for 5 minutes at room temperature. The ethanol is removed by aspiration via a MultiScreen HTS Vaccum Manifold unit (Millipore, Cat no: MSVMHT500). The plates are washed twice by adding 200 μl/well ddH2O). The MultiScreen-IP plate is incubated at room temperature for 30 minutes to allowing binding of casein to the plate. The MultiScreen-IP plates are washed three times by adding 200 μl/well 100 mM phosphoric acid solution and the gasket is carefully removed from the back of the MultiScreen-IP plate and the plate dried in the oven for 30 minutes. The MultiScreen-IP plate is backsealed, 50 μL of Microscint™20 is added, then the plates are topsealed and radiolabelled casein detected and quantified on a TopCount™ plate-reader using the ^33P scintillation protocol.

Compound | IC50
c1ccc(-c2nc(-c3cccnc3)c3cc[nH]c3n2)nc1 [Example 1, 4-Pyridin-3-yl-2-pyridin-2-yl-7H-pyrrolo[2,3-d]pyrimidine] | 1180 nM
Cc1cccc(-c2nc(-c3cccnc3)c3cc[nH]c3n2)n1 [Example 2, 2-(6-methyl-pyridin-2-yl)-4-pyridin-3-yl-7H-pyrrolo[2,3-d]pyrimidine] | 380 nM
Cc1cccc(-c2nc(-c3cncc(-c4ccccc4)c3)c3cc[nH]c3n2)n1 [Example 4, 2-(6-Methyl-pyridin-2-yl)-4-(5-phenyl-pyridin-3-yl)-7H-pyrrolo[2,3-d]pyrimidine] | 34 nM
COc1ccc(-c2cncc(-c3nc(-c4cccc(C)n4)nc4[nH]ccc34)c2)cc1 [Example 5, 4-[5-(4-Methoxy-phenyl)-pyridin-3-yl]-2-(6-methyl-pyridin-2-yl)-7H-pyrrolo[2,3-d]pyrimidine] | 115 nM
COc1cccc(-c2cncc(-c3nc(-c4cccc(C)n4)nc4[nH]ccc34)c2)c1 [Example 6, 4-[5-(3-Methoxy-phenyl)-pyridin-3-yl]-2-(6-methyl-pyridin-2-yl)-7H-pyrrolo[2,3-d]pyrimidine] | 32 nM
Cc1cccc(-c2nc(-c3cncc(-c4ccc(F)cc4)c3)c3cc[nH]c3n2)n1 [Example 7, 4-[5-(4-Fluoro-phenyl)-pyridin-3-yl]-2-(6-methyl-pyridin-2-yl)-7H-pyrrolo[2,3-d]pyrimidine] | 45 nM
COc1ccccc1-c1cncc(-c2nc(-c3cccc(C)n3)nc3[nH]ccc23)c1 [Example 8, 4-[5-(2-Methoxy-phenyl)-pyridin-3-yl]-2-(6-methyl-pyridin-2-yl)-7H-pyrrolo[2,3-d]pyrimidine] | 478 nM
Cc1cccc(-c2nc(-c3cncc(-c4ccc(C(=O)N5CCN(C)CC5)cc4)c3)c3cc[nH]c3n2)n1 [Example 9, (4-methyl-piperazin-1-yl)-(4-{5-[2-(6-methyl-pyridin-2-yl)-7H-pyrrolo[2,3-d]pyrimidin-4-yl]-pyridin-3-yl}-phenyl)-methanone] | 13 nM
Cc1cccc(-c2nc(-c3cncc(-c4cccc(CN5CCN(C)CC5)c4)c3)c3cc[nH]c3n2)n1 [Example 10, 4-{5-[3-(4-Methyl-piperazin-1-ylmethyl)-phenyl]-pyridin-3-yl}-2-(6-methyl-pyridin-2-yl)-7H-pyrrolo[2,3-d]pyrimidine] | 50 nM
Cc1cccc(-c2nc(-c3cncc(-c4ccc(N5CCN(C(C)C)CC5)cc4)c3)c3cc[nH]c3n2)n1 [Example 15, 4-{5-[4-(4-Isopropyl-piperazin-1-yl)-phenyl]-pyridin-3-yl}-2-(6-methyl-pyridin-2-yl)-7H-pyrrolo[2,3-d]pyrimidine] | 160 nM
Cc1cccc(-c2nc(-c3cncc(-c4ccc(N5CCCCC5)cc4)c3)c3cc[nH]c3n2)n1 [Example 17, 2-(6-Methyl-pyridin-2-yl)-4-[5-(4-piperidin-1-yl-phenyl)-pyridin-3-yl]-7H-pyrrolo[2,3-d]pyrimidine] | 929 nM
Cc1cccc(-c2nc(-c3cncc(-c4cccc(N5CCCC5)c4)c3)c3cc[nH]c3n2)n1 [Example 18, 2-(6-Methyl-pyridin-2-yl)-4-[5-(3-pyrrolidin-1-yl-phenyl)-pyridin-3-yl]-7H-pyrrolo[2,3-d]pyrimidine] | 172 nM
Cc1cccc(-c2nc(-c3cncc(-c4ccc(CN5CCN(C)CC5)cc4)c3)c3cc[nH]c3n2)n1 [Example 20, 4-{5-[4-(4-Methyl-piperazin-1-ylmethyl)-phenyl]-pyridin-3-yl}-2-(6-methyl-pyridin-2-yl)-7H-pyrrolo[2,3-d]pyrimidine] | 45 nM
Cc1cccc(-c2nc(-c3cncc(-c4ccncc4)c3)c3cc[nH]c3n2)n1 [Example 21, 5-[2-(6-Methyl-pyridin-2-yl)-7H-pyrrolo[2,3-d]pyrimidin-4-yl]-[3,4′]bipyridinyl] | 84 nM
Cc1cccc(-c2nc(-c3cncc(-c4cccnc4)c3)c3cc[nH]c3n2)n1 [Example 22, 5-[2-(6-Methyl-pyridin-2-yl)-7H-pyrrolo[2,3-d]pyrimidin-4-yl]-[3,3′]bipyridinyl] | 44 nM
Cc1cccc(-c2nc(-c3cncc(-c4cccc(O)c4)c3)c3cc[nH]c3n2)n1 [Example 23, 3-{5-[2-(6-Methyl-pyridin-2-yl)-7H-pyrrolo[2,3-d]pyrimidin-4-yl]-pyridin-3-yl}-phenol] | 14 nM
Cc1cccc(-c2nc(-c3cncc(-c4ccccc4F)c3)c3cc[nH]c3n2)n1 [Example 24, 4-[5-(2-Fluoro-phenyl)-pyridin-3-yl]-2-(6-methyl-pyridin-2-yl)-7H-pyrrolo[2,3-d]pyrimidine] | 34 nM
Cc1cccc(-c2nc(-c3cnc4ccccc4c3)c3cc[nH]c3n2)n1 [Example 28, 3-[2-(6-Methyl-pyridin-2-yl)-7H-pyrrolo[2,3-d]pyrimidin-4-yl]-quinoline] | 184 nM
Cc1cccc(-c2nc(-c3cncc4ccccc34)c3cc[nH]c3n2)n1 [Example 29, 4-[2-(6-Methyl-pyridin-2-yl)-7H-pyrrolo[2,3-d]pyrimidin-4-yl]-isoquinoline] | 11 nM

Second part, the compound after the results:

IC50 | Compound
130 nM | COc1cncc(-c2nc(-c3cccc(C)n3)nc3[nH]ccc23)c1 [Example 3, 4-(5-Methoxy-pyridin-3-yl)-2-(6-methyl-pyridin-2-yl)-7H-pyrrolo[2,3-d]pyrimidine]
367 nM | CCNC(=O)c1cncc(-c2nc(-c3cccc(C)n3)nc3[nH]ccc23)c1 [Example 11, N-Ethyl-5-[2-(6-methyl-pyridin-2-yl)-7H-pyrrolo[2,3-d]pyrimidin-4-yl]-nicotinamide]
345 nM | Cc1cccc(-c2nc(-c3cncc(C(=O)NCCN(C)C)c3)c3cc[nH]c3n2)n1 [Example 12, N-(2-Dimethylamino-ethyl)-5-[2-(6-methyl-pyridin-2-yl)-7H-pyrrolo[2,3-d]pyrimidin-4-yl]-nicotinamide]
177 nM | Cc1cccc(-c2nc(-c3cncc(C(=O)NCCCN(C)C)c3)c3cc[nH]c3n2)n1 [Example 13, N-(3-Dimethylamino-propyl)-5-[2-(6-methyl-pyridin-2-yl)-7H-pyrrolo[2,3-d]pyrimidin-4-yl]-nicotinamide]
1810 nM | Cc1cccc(-c2nc(-c3cncc(Br)c3)c3cc[nH]c3n2)n1 [Example 16, 4-(5-bromo-pyridin-3-yl)-2-(6-methyl-pyridin-2-yl)-7H-pyrrolo[2,3-d]pyrimidine]
223 nM | Cc1cccc(-c2nc(-c3cncc(C(=O)NCCCN4CCN(C)CC4)c3)c3cc[nH]c3n2)n1 [Example 25, N-[3-(4-Methyl-piperazin-1-yl)-propyl]-5-[2-(6-methyl-pyridin-2-yl)-7H-pyrrolo[2,3-d]pyrimidin-4-yl]-nicotinamide]
465 nM | Cc1cccc(-c2nc(-c3cncc(C(=O)NCCCO)c3)c3cc[nH]c3n2)n1 [Example 26, N-(3-Hydroxy-propyl)-5-[2-(6-methyl-pyridin-2-yl)-7H-pyrrolo[2,3-d]pyrimidin-4-yl]-nicotinamide]
723 nM | CCC(=O)Nc1cncc(-c2nc(-c3cccc(C)n3)nc3[nH]ccc23)c1 [Example 27, N-{5-[2-(6-Methyl-pyridin-2-yl)-7H-pyrrolo[2,3-d]pyrimidin-4-yl]-pyridin-3-yl}-propionamide]
